Results published in PMC5563081, “Modulating Protein-Protein Interactions of the Mitotic Polo-like Kinases to Target Mutant KRAS” (Cell Chemical Biology, 2017).

Legend:
[1] = tested on: phospho-Ser10 histone H3; experiment: Phospho-histone H3 (Ser10) in xenograft tumour lysates (Western blot); assay type: in vivo, mouse; conditions: within 24 hr after single 200mg/kg oral dose, compared with vehicle
Method: Tumours were established by sub-cutaneous implantation of 2 x 10^6 HCT116 cells suspended in 50% Matrigel into the flanks of a cohort of mice. When a sufficient number of mice had developed tumours of approximately 100mm3, they were randomly assigned to three groups: Vehicle, 50mg/kg Poloppin-II or 200mg/kg Poloppin-II, with 10 mice per group. Mice were treated orally according to their treatment group once every three days. Tumour volume was measured three times per week with calipers. Body weight was measured three times per week. In addition to mice assigned to tumour volume efficacy arm of the study, 16 mice with established HCT116 xenografts were assigned to either Vehicle or 200mg/kg oral dosing groups, with 8 mice per group. 24 hours after a single dose, mice were euthanised, tumours removed, snap frozen and 30-50microgram of lysates were analysed by Western blotting on 4-12% Bis-Tris acrylamide gels, and transferred using the Invitrogen iBlot dry system. Phospho-Histone H3 was detected using Abcam antibody ab5176, beta-actin with Sigma antibody a5316. […] HRP was visualised with ECL-Plus (GE Healthcare).

[2] = target: T1, PLK1 (Homo sapiens, UniProt P53350); experiment: Cellular thermal shift assay (CeTSA / ITDRF-CeTSA) in HeLa cell lysates; assay type: binding
T1 construct: endogenous in cells; host or cells: HeLa cell lysate
Method: Two million HeLa cells were assessed for viability using Trypan blue and aliquoted into PCR tubes for lysate preparation and CeTSA. Aggregation temperature (Tagg) was determined for PLK1 PBD with a Biorad Tetrad gradient maker, using a final concentration of 1mM or 0.5mM for Poloppin or Poloppin-II, respectively, in 5% DMSO ([Jafari et al., 2014]). Samples were assessed using PLK1 antibodies (Invitrogen 33-1700) and GAPDH (Santa Cruz sc137179) and Li-Cor antibody (926-32252). Quantification was done with Odyssey Li-Cor technology.

[3] = tested on: HeLa-KRAS G12D; experiment: GI50 for cell killing, HeLa-KRAS G12D; assay type: cell-based; conditions: Homo sapiens
Method: Five x10^4 cells were seeded on each well of 4-well coverglass Lab-Tek chambers in a volume of 800 μl. HeLa-G12D cells were induced with Doxycycline (Dox) 24h before seeding and kept in Dox for the rest of the experiment.

[4] = target: PLK1 PBD (Homo sapiens, UniProt P53350); experiment: Isothermal titration calorimetry; assay type: binding; parameters: In all titrations, PBDaa345-603 protein was used at 25 μM; GST (N, cleaved yes); made in house; host or cells: E. coli C41; conditions: ITC, 20 °C
Method: In all titrations, PBDaa345-603 protein was used at 25 μM and buffered in HEPES (50 mM, pH 7.4), NaCl (200 mM), and DTT (1mM). Protein was diluted into buffer with DMSO at 5% (v/v). Poloppin was prepared by diluting from DMSO stock into the same buffer containing DMSO at 5% (v/v). Great care was taken to match the concentration of DMSO in the ligand and protein samples as closely as possible. In a typical experiment, protein (25 μM) was loaded in the sample cell, and a total of 20 injections of 8μL were made at 2 min intervals from a 200 μL syringe rotating at 1000 rpm and loaded with ligand solution (0.5 mM). […] The thermodynamic parameters were obtained by fitting the data to a single-site binding model with a stoichiometry of 1. ITC experiments were performed at 20 °C with a MicroCal ITC200 instrument, and all data were analysed with the software implemented in Origin (version 7) ([Scott et al., 2015]).

[5] = tested on: MEFs KRAS MUT p53 MUT; experiment: Cell viability in MEFs, KRAS MUT p53 MUT; assay type: cell-based; conditions: Mus musculus
Method: (§1) KrasWT mouse embryonic fibroblasts (MEFs) were derived from conditional LSL-Trp53^R172H/+ embryos. LSL-Trp53^R172H/+, LSL-Kras^G12D/+ ([Hingorani et al., 2005]) strains were interbred to obtain LSL-Kras^G12D/+, LSL-Trp53^R172H/+ Kras^G12D embryos for MEF preparation. Briefly, MEFs were derived from E13.5 embryos after decapitation and evisceration. Finely minced tissue was passed through a 16-G needle two or three times before dissociated cells were cultured in DMEM with 10% FBS. Cre-mediated recombination to activate the Kras^G12D allele was induced via addition of 500nM 4-OH Tamoxifen to the culture media overnight.

[6] = tested on: MEFs KRAS WT p53 MUT; experiment: Cell viability in MEFs, KRAS WT p53 MUT; assay type: cell-based; conditions: Mus musculus
Method: as §1

T1 sequence (P53350 whole entry): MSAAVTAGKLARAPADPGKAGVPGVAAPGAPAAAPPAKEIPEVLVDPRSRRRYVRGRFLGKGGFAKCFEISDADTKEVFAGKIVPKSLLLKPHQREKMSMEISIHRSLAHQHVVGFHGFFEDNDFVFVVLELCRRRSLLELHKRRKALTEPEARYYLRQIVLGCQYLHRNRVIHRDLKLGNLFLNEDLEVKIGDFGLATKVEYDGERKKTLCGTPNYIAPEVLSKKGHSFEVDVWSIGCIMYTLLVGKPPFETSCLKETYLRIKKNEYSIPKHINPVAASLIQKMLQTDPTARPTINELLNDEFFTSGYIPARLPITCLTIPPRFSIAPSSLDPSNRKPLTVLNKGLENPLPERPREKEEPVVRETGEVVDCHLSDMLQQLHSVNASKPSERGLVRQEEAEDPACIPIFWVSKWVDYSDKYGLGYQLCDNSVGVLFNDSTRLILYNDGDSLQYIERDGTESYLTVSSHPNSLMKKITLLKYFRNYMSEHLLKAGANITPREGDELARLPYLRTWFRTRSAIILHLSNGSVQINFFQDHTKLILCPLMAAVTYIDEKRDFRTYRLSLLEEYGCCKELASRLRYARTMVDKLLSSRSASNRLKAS
Chain of PLK1 PBD (P53350 345-603): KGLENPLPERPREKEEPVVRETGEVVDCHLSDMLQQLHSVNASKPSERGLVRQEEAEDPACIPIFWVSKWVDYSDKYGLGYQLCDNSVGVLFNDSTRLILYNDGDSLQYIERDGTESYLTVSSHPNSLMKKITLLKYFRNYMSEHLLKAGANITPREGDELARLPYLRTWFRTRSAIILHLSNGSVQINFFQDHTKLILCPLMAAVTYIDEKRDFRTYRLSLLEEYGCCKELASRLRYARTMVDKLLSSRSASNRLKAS

SMILES	phospho-Ser10 histone H3 expression in xenografts [1]	concentration at which cellular PLK1 is stabilized (ITDRF-CeTSA) ([2]; cell lysates at a constant 67°C) [µM]	thermal stability of PLK1 protein (CeTSA) ([2]; fixed dose of 1 mM, HeLa cell lysates, compared with control)	GI50 [3] [µM]	Kd [4] [µM]	GI50 ([5]; MEFs KRAS MUT p53 MUT) [µM]	GI50 ([5]; MEFs KRAS MUT p53 MUT+4OHT) [µM]	GI50 ([6]; MEFs KRAS WT p53 MUT) [µM]	GI50 ([6]; MEFs KRAS WT p53 MUT+4OHT) [µM]
CN(C)CCNC(=O)c1ccc(-c2ccc(-c3ccc(Cl)cc3)n2-c2ccccc2C(F)(F)F)cc1 [Poloppin-II]	increased levels								
O=C(O)CCc1ccc(-c2ccc(Br)cc2)n1-c1ccccc1C(F)(F)F [Poloppin]		> 40	increased thermal stability	5	29.5	49.5 ± 1.05	17.6 ± 1.22	51.1 ± 1.05	43.7 ± 1.09
